Key:
[1] = target: T1, human recombinant PLA2 (group II) (Homo sapiens, UniProt P14555); assay: Fluorometric anti-PLA2 assay, human recombinant PLA2 (group II); assay type: biochemical; conditions: measured for fluorescence with human recombinant PLA2 (group II); read-out: Anti-PLA2 activity IC50 HPLA2
T1 sequence (P14555 21-144): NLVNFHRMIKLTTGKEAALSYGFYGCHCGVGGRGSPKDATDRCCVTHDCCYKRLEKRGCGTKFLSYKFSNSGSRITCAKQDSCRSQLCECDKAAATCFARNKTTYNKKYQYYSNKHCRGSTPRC
Method: (§1) Phospholipase A2 hydrolyzes an ester linkage at the sn-2 position of glycerophospholipid and liberates fatty acids and lysophospholipids. The in vitro action of particular compounds was evaluated by the analysis of fatty acids according to the fluorometric method described in Radvanyi et al., Anal. Biochem. 1989, 177. 103-109, and by the analysis of lysophospholipids according to the UV spectrophotometric method described in Reynolds et al., Anal. Biochem. 1992, 204, 190-197.
(§2) Enzymes used were two secretory enzymes of group II (human recombinant PLA2, and PLA2 basic subunit isolated from Crotalus durissus terrificus), and a secretory enzyme of porcine pancreatic (group I) PLA2.
(§3) Regarding substrates, palmitoyl-2-(10-pyrenyl decanoyl)-sn-glycero-3-phosphatidylglycerolic acid as a fluorescent substrate was used in the fluorometric method, and the lithium salt of 1,2-bis-(dihexanylthio)-dideoxy-rac-glycero-3-phosphorylglycerol was used in the UV spectrophotometric method.
(§4) The fluorometric analysis was performed using a Perkin Elmer LS50 luminescence spectrometer in a unit dosage polystyrene cell having a size of 1 cm. The exact concentration of the fluorescent substrate was determined by UV Unicam spectrometry in a quartz cell.
(§5) PLA2 is an enzyme that hydrolyzes an ester linkage at the sn-2 position of phospholipid. […] After hydrolysis with the enzyme, fluorescence emitted by the liberated fatty acid (pyrenyl decanoic acid) complex with bovine serum albumin (BSA) is increased, and strong fluorescence emission is observed at 378 and 398 nm. The principle of the analysis is to measure a difference in fluorescence at 398 nm in order to examine the production of fatty acids liberated for a given period of time, thus determining the PLA2 activity.
(§6) Measurement of the enzymatic activity was performed in a cell containing: 960 μl of Tris buffer; 50 mM HCl (pH 7.5); 0.5 M NaCl, 1 mM EGTA; and 1 μl substrate. This mixture was stirred under reflux for one minute to permit the formation of vesicles of substrate, and then, 10 μl of 10% SAB, 10 μl of solvent (ethanol or DMSO) or inhibitor solution, 10 μl of PLA2 to a given concentration and finally 10 μl of 1 M calcium chloride (CaCl2) for initiating the activity were successively added to the mixture under stirring.
(§7) Good conditions of measurement of the enzymatic activity include saturation of the enzyme, and thus, initial concentrations used are as follows: (i) human recombinant PLA2: 0.1 μl/ml; (ii) porcine pancreatic PLA2: 0.6 μl/ml; and (iii) Crotalus durissus terrificus (CB) PLA2: 0.05 μl/ml. Mother solution containing the inhibitor was prepared at an initial concentration of 10^−2 M.
(§8) The enzymatic activity is shown by a curve of which the original slope permits to calculate the initial velocity of the reaction. The following equation permits to calculate the enzymatic activity (A; μmol) of fatty acids liberated per minute. In the equation, S0 represents the slope of a curve in the absence of calcium (control), S the slope in the presence of calcium, V the volume (μl) of the substrate solution, and Fmax the signal of maximum fluorescence obtained at the end of the enzymatic reaction: [formula]
(§9) The residual activity in the presence of an inhibitor was evaluated by slopes obtained in the absence and presence of an inhibitor, according to the following equation: Residual activity (%)=(S−S0) in the presence of inhibitor/(S−S0) in the absence of inhibitor
(§10) Values obtained as a logarithmic function of the inhibitor concentrations used permit to determine the IC50 value, i.e., the inhibitor concentration required to cause 50% reduction of the enzymatic activity. The lower the IC50 value, the higher the inhibitory activity of a compound tested.

[2] = target: T2, porcine pancreatic PLA2 (group I) (Sus scrofa, UniProt P00592); assay: Fluorometric anti-PLA2 assay, porcine pancreatic PLA2 (group I); assay type: biochemical; conditions: measured for fluorescence with porcine pancreatic PLA2 (group I); read-out: Anti-PLA2 activity IC50 PPLA2
T2 sequence (P00592 23-146): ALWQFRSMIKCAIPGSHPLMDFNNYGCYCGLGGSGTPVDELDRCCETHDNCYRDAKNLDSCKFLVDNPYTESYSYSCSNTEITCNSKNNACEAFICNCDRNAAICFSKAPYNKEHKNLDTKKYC
Method: as §1, §2, §3, §4, §5, §6, §7, §8, §9, §10

[3] = test system: ear edema induced by croton oil; assay: Croton oil-induced ear edema test, local anti-inflammatory effect; assay type: in vivo, male ICR mice; conditions: mice, topical, 5 hours
Method: A-2: As animals, male ICR mice weighing 25 g were used.
A-4: To evaluate the in vivo anti-inflammatory effect of the inventive PMS compounds as listed above, the ear edema test was used as an acute inflammatory experimental model.
After inducing edema on one ear of mice by the application of croton oil, the sample of each of the PMS compounds as described above was dissolved in 80% chloroform. […] The other ear was applied only with the solvent, i.e., 80% chloroform.
After 5 hours of the initiation of the experiment, the ear tissue at the level of edema was collected by a gimlet from the skin, and the tissue collected was compared with one collected from the control part of the ear by a gimlet, to calculate the percent inhibition.
A-5: To calculate the statistical significance, the results obtained in each of the […] and the […] were evaluated by Student's t-test.

[4] = test system: PLA2 of Crotalus durissus terrificus (group II); assay: UV spectrophotometric anti-PLA2 assay, Crotalus durissus terrificus PLA2 (CB); assay type: biochemical; conditions: UV spectrophotometric method, read-out: Anti-PLA2 activity IC50 CB Spectro
Method: as §1, §2, §3
The UV spectrophotometric analysis was performed on an ELx 808 Ultra Micro Plate Reader apparatus (96-well plate).
Lysothiophospholipid (LTPL) liberated by the lypolytic action of PLA2 in the presence of calcium reacts with dithionitrobenzoic acid (DTNB) present in medium to form an LTPL-TNB complex and an TNB-anion which induces the yellowing of reaction medium.
The measurement of enzymatic activity is performed in a multiple well plate of which each well contains 190 μl of 1× buffer, 2 μl of 10 mM DTNB, […] of 20 mM substrate, 2 μl of solvent or inhibitor solution, and 2 μl of PLA2 at a given concentration. The plate was stirred and 2 μl of 1 M calcium chloride was added to initiate the enzymatic reaction. Substrate was used at a lower concentration than micellar critical concentration (about 1 mM) in a monomeric form, and the ratio of substrate to enzyme was respected. […]
(§11) Good conditions of measurement include saturation of enzyme. […] It calculated directly the initial velocity of the reaction. […]
(§12) 15 readings for each well (3 wells per concentration) were performed at intervals of 3 seconds.

[5] = test system: PLA2 of Crotalus durissus terrificus (group II); assay: Fluorometric anti-PLA2 assay, Crotalus durissus terrificus PLA2 (CB); assay type: biochemical; conditions: fluorometric method, read-out: Anti-PLA2 activity IC50 CB Fluo
Method: as §1, §2, §3, §4
as §5, with “activity. […]” for “activity.”
The residual activity in the presence of an inhibitor was evaluated by slopes obtained in the absence and presence of an inhibitor, according to the following equation: Residual activity (%)=(S−S0) in the presence of inhibitor/(S−S0) in the absence of inhibitor […]

[6] = target: T2, porcine pancreatic PLA2 (group I); assay: UV spectrophotometric anti-PLA2 assay, porcine pancreatic PLA2 (group I); assay type: biochemical; conditions: UV spectrophotometric method, read-out: Anti-PLA2 activity IC50 PPLA2 spectro
Method: as §1, §2, §3
The UV spectrophotometric analysis was performed on an ELx 808 Ultra Micro Plate Reader apparatus (96-well plate). […]
as §11, §12

[7] = test system: carrageenan-induced edema; assay: Carrageenan-induced edema test in rats; assay type: in vivo; conditions: dose of 10 mg/kg
Method: An in vivo activity assay was performed by a carrageenan-induced edema test in rats.
In the experimental protocol conducted, indomethacin as the reference product, or the compound No. 5, was administered intraperitoneally or orally at one hour before the injection of carrageenan into the hind leg of the rats. The volume of edema was measured at 0, 3 and 5 hours after the injection of carrageenan. The doses used were 5, 10 and 20 mg/kg for the two products tested.

Compound | IC50 [1] | IC50 [2] | also measured
CCCCCCCCCCCCCCN1CCN(C(=O)c2ccc(CCCc3noc(=O)[nH]3)cc2)CC1 [Example 9, 1-[4′-(4,5-dihydro-1,2,4(4H)-5-oxo-oxadiazol-3-ylpropyl)benzoyl]-4-tetradecylpiperazine] | 5300 nM | > 100000 nM | –
1-[4′-(4,5-dihydro-1,2,4(4H)-5-oxo-oxadiazol-3-ylmethyl)benzyl]-4-tetradecylpiperazine [Compound 2] | > 10000 nM | – | Edema inhibition (%) ([3]; 1 mg/ear, listed as PMS 1227): 51.45 ± 11.67%
CCCCCCCCCCCCCCN1CCN(Cc2ccc(Cc3noc(=O)[nH]3)cc2)C(=O)C1 [Example 7, 1-[4′-(4,5-dihydro-1,2,4(4H)-5-oxo-oxadiazol-3-ylmethyl)benzyl]-4-tetradecylpiperazin-2-one] | 30000 nM | > 100000 nM | –
CCCCCCCCCCCCCCCCCCN1CCN(c2ccc(Cc3noc(=O)[nH]3)cc2)CC1 [Compound 10, 1-[4′-(4,5-dihydro-1,2,4(4H)-5-oxo-oxadiazol-3-ylmethyl)phenyl]-4-octadecylpiperazine] | 2710 nM | > 100000 nM | –
CCCCCCCCCCCCCCCCCCN1CCN(C(=O)c2ccc(CC3SC(=O)NC3=O)cc2)CC1 (centres unmarked) [Compound 15, 1-[4′-(2,4-dioxo-1,3-thiazolidin-5-ylmethyl)benzoyl]-4-octadecylpiperazine] | 1000 nM | > 100000 nM | IC50 [4]: 2000 nM; IC50 [5]: 1400 nM
1-[4′-(4,5-dihydro-1,2,4(4H)-5-oxo-oxadiazol-3-ylmethyl)benzoyl]-4-dodecylpiperazine [PMS 1314] | – | – | Edema inhibition (%) ([3]; 1 mg/ear): 28.5 ± 6.85%
CCCCCCCCCCCCCCCCCCN1CCN(C(=O)c2ccc(C=C3SC(=O)NC3=O)cc2)CC1 [Compound 14, [4-(4′-octadecylpiperazine-1′-ylcarbonyl)benzylidene]-1,3-thiazolidine-2,4-dione] | 280 nM | 10000 nM | IC50 [4]: 400 nM; IC50 [5]: 400 nM; IC50 [6]: > 100000 nM
CCCCCCCCCCCCN1CC(C)N(C(=O)c2ccc(Cc3noc(=O)[nH]3)cc2)CC1C (centres unmarked) [Compound 13, 1-[4′-(4,5-dihydro-1,2,4(4H)-5-oxo-oxadiazol-3-ylmethyl)benzoyl]-2,5-dimethyl-4-dodecylpiperazine] | – | > 100000 nM | Edema inhibition (%) ([3]; 1 mg/ear): 62.79 ± 3.23%
CCCCCCCCCCCCCCN1CCN(C(=O)c2ccc(Cc3noc(=O)[nH]3)cc2)CC1 [Example 8, 1-[4′-(4,5-dihydro-1,2,4(4H)-5-oxo-oxadiazol-3-ylmethyl)benzoyl]-4-tetradecylpiperazine] | 18700 nM | > 100000 nM | –
COc1ccc2c(c1)c(CC(=O)O)c(C)n2C(=O)c1ccc(Cl)cc1 [Indomethacin, indomethacin] | – | – | Edema inhibition (%) ([3]; 0.5 mg/ear): 43.11 ± 8.79%; inhibition of edema ([7]; intraperitoneal route, given one hour before carrageenan): 79%; inhibition of edema ([7]; oral route, at 5 hours after the injection of carrageenan): 16%
CCCCCCCCCCCCCCCCCCN1CCN(C(=O)c2ccc(Cc3noc(=O)[nH]3)cc2)CC1 [Compound 6, 1-[4′-(4,5-dihydro-1,2,4(4H)-5-oxo-oxadiazol-3-ylmethyl)benzoyl]-4-octadecylpiperazine] | 800 nM | – | IC50 [4]: 2000 nM; IC50 [5]: 1500 nM
1-[4′-(4,5-dihydro-1,2,4(4H)-5-oxo-oxadiazol-3-ylmethyl)benzyl]-4-tetradecylpiperazine [PMS 1281] | – | – | Edema inhibition (%) ([3]; 1 mg/ear): 47.83 ± 12.34%

Reference: patent publication US20050075345A1, “Novel inhibitor compounds specific of secreted non-pancreatic human a2phospholipase of group II” (Yang Ji Chemical Company Ltd., priority 2001, published 2005)
